Measurements as given in patent US4385055A, “2-Acetyl-and 2-propionylpyridine thiosemicarbazones as antimalarials” (The United States of America as represented by the …, priority 1981, dated 1983).
≈ marks a conversion by molar mass, not a printed value. Read-outs that look alike come from different tables or passages of the source.

Legend:
[1] = tested on: Mycobacterium intracellulare; test: Broth dilution MIC, Mycobacterium intracellulare strains (Test 6); format: cell-based; conditions: read-out: Minimum Inhibitory Concentration
[2] = tested on: Group D Enterococcus; test: Macro broth dilution MIC, Group D Enterococcus isolates (Test 1); format: cell-based; conditions: 24 h, read after 24 hours, read-out: Minimum Inhibitory Concentration
Method: (§1) Compounds were tested against five isolates of Staphylococcus aureus and five isolates of Group D Enterococcus. The bacteria used were isolated from patients at the Walter Reed Army Medical Center, Washington, D.C. The test procedure used was the macro broth dilution method in duplicate as outlined by J. C. Sherris on pages 414-415 in "Manual of Clinical Microbiology," 2nd ed., E. Lennette, E. H. Spaulding, and J. P. Truant, Ed. (American Society for Microbiology, Washington, D.C., 1974). Each compound was dissolved in DMSO (12.8 mg/mL) and then diluted with Mueller-Hinton broth to obtain the desired dilutions. Tubes containing the highest quantities of DMSO with no compound present were run as controls.

[3] = tested on: Staphylococcus aureus; test: Macro broth dilution MIC, Staphylococcus aureus isolates (Test 1); format: cell-based; conditions: 24 h, read after 24 hours, read-out: Minimum Inhibitory Concentration
Method: as §1

[4] = tested on: Plasmodium berghei KBG 173; test: In vivo antimalarial activity in mice (Test 5); parameters: key to In vivo Antimalarial Activity: C: Mice surviving 60 days are considered cured; Active: Activity is defined as a 100% increase in the mean survival time of the treated mice compared to the control group; Toxicity is defined as a decrease in the mean survival time of the treated mice as compared to the control group; conditions: for ED50: Plasmodium berghei, computed estimate of the dose required to cure 50% of the mice; for In vivo Antimalarial Activity: mice, C = Cure (cured/treated mice)
Method: Compounds were tested against Plasmodium berghei KBG 173 malaria in mice following the procedure described by T. S. Osdene, P. B. Russell, and L. Rane [J. Med. Chem. 10:431-434 (1967)]. Five mice were tested at each dosage level. Mice surviving 60 days are considered cured. Toxicity is defined as a decrease in the mean survival time of the treated mice as compared to the control group. Activity is defined as a 100% increase in the mean survival time of the treated mice compared to the control group.

[5] = tested on: Mycobacterium smegmatis; test: MIC against Mycobacterium smegmatis strains (Test 4); format: cell-based; conditions: Mycolicibacterium smegmatis, read-out: Minimum Inhibitory Concentration
Method: Compounds were tested against four strains of Mycobacterium smegmatis. The test procedure used was as mentioned by N. E. Morrison [Int. J. of Leprosy 39:34-43 (1971)]. The strain numbers refer to Mycobacterium smegmatis ATCC 607, a DDS-resistant daughter strain, a Rifampin-resistant daughter strain, and a Clofazimine-resistant daughter strain, respectively.

[6] = tested on: Neisseria gonorrhoeae; test: Agar dilution MIC, Neisseria gonorrhoeae isolates (Test 3); format: cell-based; conditions: 24 h, read-out: Minimum Inhibitory Concentration
Method: Compounds were tested against six Neisseria gonorrhoeae isolates. The bacteria used were provided by the Department of Bacterial Diseases of the Walter Reed Army Institute of Research. The test procedure used was the agar dilution method in duplicate as outlined by J. C. Sherris on pages 411-412 (loc. cit.). GC Medium (Difco) with a 2% defined supplement added as described by D. S. Kellogg et al. [J. Bact. 85:1274-1279 (1963)] was used as the media. The compounds were dissolved in DMSO (1.0 mg/mL), diluted with GC broth (GC Medium without agar) to the appropriate concentration, and added to the GC Medium at 55°-56° C. The latter was then poured and allowed to solidify. A penicillin standard was also prepared with initial dilutions as described by J. C. Sherris followed by dilutions with GC broth and addition to the GC Medium at 55°-56° C. as above. The inoculum was 1:200 GC broth dilution of a suspension of colony isolates after the suspension was adjusted visually to the turbidity standard described by J. M. Matsen and A. L. Barr on page 422 in "Manual of Clinical Microbiology," 2nd ed., E. Lennette, E. H. Spaulding, and J. P. Truant, Ed. (American Society for Microbiology, Washington, D.C., 1974). The plates were inoculated with a replicator and incubated at 37° C. under 5-10% carbon dioxide.

[7] = tested on: Neisseria meningitidis; test: Macro broth dilution MIC, Neisseria meningitidis isolates (Test 2); format: cell-based; conditions: Neisseria meningitidis, 24 h, read after 24 hours, read-out: Minimum Inhibitory Concentration
Method: Compounds were tested against five isolates of Neisseria meningitidis. The bacterial isolates were provided by the Department of Bacterial Diseases of the Walter Reed Army Institute of Research. The test procedure used was the macro broth dilution method in duplicate outlined by J. C. Sherris on pages 414-415 (loc. cit.). The test compounds and controls were prepared as in Test 1 above. Ampicillin and penicillin standards were initially diluted as described by J. C. Sherris on pages 411-412 (loc. cit.) followed by dilution with Mueller-Hinton broth. The tubes were incubated at 37° C. under 5-10% carbon dioxide.

[8] = Mycobacterium intracellulare strain I
[9] = Mycobacterium intracellulare strain II
[10] = Mycobacterium intracellulare strain III
[11] = Mycobacterium intracellulare strain IV
[12] = Mycobacterium intracellulare strain V
[13] = Mycobacterium intracellulare strain VI
[14] = Staphylococcus aureus isolate I
[15] = Staphylococcus aureus isolate II
[16] = Staphylococcus aureus isolate III
[17] = Staphylococcus aureus isolate IV
[18] = Staphylococcus aureus isolate V
[19] = Neisseria meningitidis isolate 7957
[20] = Neisseria meningitidis isolate 7990
[21] = Neisseria meningitidis isolate 8005
[22] = Neisseria meningitidis isolate 8006
[23] = Neisseria meningitidis isolate 8011

| MIC [3, 14] [µg/mL] | MIC [3, 15] [µg/mL] | MIC [3, 16] [µg/mL] | MIC [3, 17] [µg/mL] | MIC [3, 18] [µg/mL] | Compound | MIC [1, 8] [µg/mL] | MIC [1, 9] [µg/mL] | MIC [1, 10] [µg/mL] | MIC [1, 11] [µg/mL] | MIC [1, 12] [µg/mL] | MIC [1, 13] [µg/mL] | ED50 [4] [mg/kg] | In vivo Antimalarial Activity ([4]; Dosage Level 640 mg/kg) | MIC [7, 19] [µg/mL] | MIC [7, 20] [µg/mL] | MIC [7, 21] [µg/mL] | MIC [7, 22] [µg/mL] | MIC [7, 23] [µg/mL] | also measured |
| --- | --- | --- | --- | --- | --- | --- | --- | --- | --- | --- | --- | --- | --- | --- | --- | --- | --- | --- | --- |
| 2 (≈ 6.09 µM) | 2 (≈ 6.09 µM) | 4 (≈ 12.2 µM) | 2 (≈ 6.09 µM) | 1 (≈ 3.04 µM) | CC(=NNC(=S)NC12CC3CC(CC(C3)C1)C2)c1ccccn1 [S, 2-Acetylpyridine 4-(1-adamantyl)-3-thiosemicarbazone] | 10 (≈ 30.4 µM) | 1 (≈ 3.04 µM) | 1 (≈ 3.04 µM) | 10 (≈ 30.4 µM) | 10 (≈ 30.4 µM) | 10 (≈ 30.4 µM) | – | – | – | – | – | – | – | MIC ([2]; Group D Enterococcus isolate I): 2 µg/mL (≈ 6.09 µM); MIC ([2]; Group D Enterococcus isolate II): 1 µg/mL (≈ 3.04 µM); MIC ([2]; Group D Enterococcus isolate III): 2 µg/mL (≈ 6.09 µM); MIC ([2]; Group D Enterococcus isolate IV): 2 µg/mL (≈ 6.09 µM); MIC ([2]; Group D Enterococcus isolate V): 2 µg/mL (≈ 6.09 µM) |
| – | – | – | – | – | CCC1CCCCN1C(=S)NN=C(C)c1ccccn1 (stereo not drawn) [AA, 2-Ethylpiperidine-1-thiocarboxylic acid 2-[1-(2-pyridyl)ethylidene]hydrazide] | 10 (≈ 34.4 µM) | 1 (≈ 3.44 µM) | 1 (≈ 3.44 µM) | 1 (≈ 3.44 µM) | 10 (≈ 34.4 µM) | 10 (≈ 34.4 µM) | 113 | – | – | – | – | – | – | MIC ([5]; ATCC607, Mycobacterium smegmatis strain I (ATCC 607)): 5 µg/mL (≈ 17.2 µM); MIC ([5]; Mycobacterium smegmatis strain II (DDS-resistant daughter strain)): 10 µg/mL (≈ 34.4 µM); MIC ([5]; Mycobacterium smegmatis strain III (Rifampin-resistant daughter strain)): 10 µg/mL (≈ 34.4 µM); MIC ([5]; Mycobacterium smegmatis strain IV (Clofazimine-resistant daughter strain)): 10 µg/mL (≈ 34.4 µM) |
| – | – | – | – | – | CC(=NNC(=S)N1CCN(c2ccccn2)CC1)c1ccccn1 [V, 1,4-Diaza-4-(2-pyridyl)cyclohexane-1-thiocarboxylic acid 2-[1-(2-pyridyl)ethylidene]hydrazide] | – | – | – | – | – | – | 45 | Toxic | 0.062 (≈ 0.182 µM) | 0.125 (≈ 0.367 µM) | 0.125 (≈ 0.367 µM) | 0.125 (≈ 0.367 µM) | 0.25 (≈ 0.734 µM) | MIC ([6]; Neisseria gonorrhoeae isolate 135, read after 24 hours): 0.016 µg/mL (≈ 0.047 µM); MIC ([6]; Neisseria gonorrhoeae isolate 161, read after 24 hours): < 0.008 µg/mL; MIC ([6]; Neisseria gonorrhoeae isolate 278, read after 24 hours): 0.031 µg/mL (≈ 0.0911 µM); MIC ([6]; Neisseria gonorrhoeae isolate 455, read after 24 hours): 0.016 µg/mL (≈ 0.047 µM); MIC ([6]; Neisseria gonorrhoeae isolate 456, read after 24 hours): 0.016 µg/mL (≈ 0.047 µM); MIC ([6]; Neisseria gonorrhoeae isolate 602, read after 24 hours): 0.016 µg/mL (≈ 0.047 µM) |
| 1 (≈ 3.62 µM) | 1 (≈ 3.62 µM) | 1 (≈ 3.62 µM) | 1 (≈ 3.62 µM) | 1 (≈ 3.62 µM) | CC(=NNC(=S)N1CCCCC1C)c1ccccn1 (stereo not drawn) [B, 2-Methylpiperidine-1-thiocarboxylic acid 2-[1-(2-pyridyl)ethylidene]hydrazide] | – | – | – | – | – | – | 57 | Toxic | 0.062 (≈ 0.224 µM) | 0.062 (≈ 0.224 µM) | 0.125 (≈ 0.452 µM) | 0.062 (≈ 0.224 µM) | 0.5 (≈ 1.81 µM) | In vivo Antimalarial Activity ([4]; Dosage Level 160 mg/kg): Active; In vivo Antimalarial Activity ([4]; Dosage Level 320 mg/kg): Toxic |
